Reference: PubChem BioAssay (NCI)
Where “and” joins values, the source holds several entries; their conditions need not be identical. Equal entries are not always repeated.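 Five compound concentrations were applied to cells in 96-well plates for 48 hours; endpoints were derived by simple linear interpolation of the resulting dose-response curve. Here, GI50 denotes the concentration required for 50% inhibition of growth. The concentration for full growth arrest is given as TGI.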

Legend:
Experiment in all cases: growth of human tumour cells (NCI), 48 h
NCI-H226 lung = test system: NCI-H226 lung
MCF7 breast = test system: MCF7 breast
SNB-75 CNS = test system: SNB-75 CNS
OVCAR-3 ovarian = test system: OVCAR-3 ovarian
OVCAR-4 ovarian = test system: OVCAR-4 ovarian
RPMI-8226 leukemia = test system: RPMI-8226 leukemia
786-0 renal = test system: 786-0 renal
SK-MEL-28 melanoma = test system: SK-MEL-28 melanoma
SK-OV-3 ovarian = test system: SK-OV-3 ovarian
ACHN renal = test system: ACHN renal

Row | Structure (SMILES) | TGI (NCI-H226 lung) | TGI (MCF7 breast) [µM] | TGI (SNB-75 CNS) [µM] | TGI (OVCAR-3 ovarian) | TGI (OVCAR-4 ovarian) | TGI (RPMI-8226 leukemia) | TGI (786-0 renal) [µM] | TGI (SK-MEL-28 melanoma) [µM] | TGI (SK-OV-3 ovarian) | TGI (ACHN renal) [µM] | GI50 (NCI-H226 lung) | GI50 (OVCAR-4 ovarian) | GI50 (SK-OV-3 ovarian) | GI50 (ACHN renal)
1 | COc1cccc(Nc2nc(-c3cccs3)nc3cc(OC)c(OC)cc23)c1 | > 100 µM | 49.2 | 73.5 | 51.1 µM | > 100 µM | 27.3 µM | 46 | > 100 | > 100 µM | 50.3 |  |  |  | 
2 | O=C(OCc1ccccc1)N1CCNCCN(C(=O)OCc2ccccc2)CCNCC1 | > 100 µM | 38.8 | 85.2 | > 100 µM | > 100 µM | 47.3 µM | 47.9 | 45.3 | > 100 µM | > 100 |  |  |  | 
3 | CCOC(=O)N1CCN(Cc2cc(=O)n3ccc(C)cc3n2)CC1 | > 100 µM | > 100 | > 100 | > 100 µM | > 100 µM | > 100 µM | > 100 | > 100 | > 100 µM | > 100 |  |  |  | 
4 | Nc1c(-c2ccc(Cl)c(Cl)c2)c2ccc([N+](=O)[O-])cc2c(=O)n1-c1nc2ccccc2s1 | 50.3 µM | 21.1 | 8.23 | > 100 µM | > 100 µM | > 100 µM | 19.6 | > 100 | 28.8 µM | 20.6 |  |  |  | 
5 | CC1=Nc2ccccc2OC(C)=C1N=Nc1ccc2nc(C)[nH]c2c1 | > 100 µM | > 100 | > 100 | > 100 µM | > 100 µM | > 100 µM | > 100 | > 100 | > 100 µM | > 100 |  |  |  | 
6 | NC(N)=Nc1ccc(CC(N)NCC(=O)O)cc1 (centres undefined) | > 25 µM | > 25 | > 25 | > 25 µM | > 25 µM | > 25 µM | > 25 | > 25 | > 25 µM | > 25 |  |  |  | 
7 | CC(C)=CCC[C@@H](C)c1c(O)c(O)c(C)c2nccnc12 | 37.1 µM | > 100 | > 100 | > 100 µM | > 100 µM | > 62.7 µM | > 100 | > 100 | > 100 µM | 45.2 |  |  |  | 
8 | C[C@]12CCC3C4=C(CCC3C1CCC2=O)C(=O)[C@H]1O[C@H]1C4=O (some centres undefined) | 4.99 µM | 4.14 | 8.14 | 3.15 µM | 7.96 µM | 4.25 µM | 3.94 | 25.4 | 28 µM | 6.77 |  |  |  | 
9 | COc1ccc(N=NC(=Nc2ccccc2)c2ccc(N(CCC#N)CCC#N)cc2)cc1 | > 100 µM | 73 | > 100 | 55.2 µM | > 100 µM | > 100 µM | > 100 | > 100 | > 100 µM | > 100 |  |  |  | 
10 | Nc1nc2c(c(-c3cccc(Cl)c3)n1)COC/C2=C\c1cccc(Cl)c1 | > 100 µM | > 100 | > 100 | > 100 µM | > 100 µM | > 100 µM | > 100 | > 100 | > 100 µM | > 100 |  |  |  | 
11 | S=C(N/N=C(/c1ccccc1)c1ccccn1)N(Cc1ccccn1)Cc1ccccn1 | 0.433 µM | 5.02 | 2.24 | 1.71 µM | 1.73 µM | 3.38 µM | 2.04 | 5.45 | 1.66 µM | 0.74 |  |  |  | 
12 | Cc1ccc(-c2csc(=Nc3ccccc3)n2NC(=O)c2ccncc2)cc1 | > 75.2 µM | > 100 | > 88.2 | > 100 µM | > 100 µM | 75.8 µM | > 100 | > 100 | > 100 µM | > 100 |  |  |  | 
13 | Cc1cc(Nc2ccc(S(=O)(=O)O)c3cc(S(=O)(=O)O)cc(S(=O)(=O)O)c23)c2ccccc2n1 | > 100 µM | > 100 | > 100 | > 100 µM | > 100 µM | > 100 µM | > 100 | > 100 | > 100 µM | > 100 |  |  |  | 
14 | NC1(c2cc3ccccc3s2)CCCC1 | > 100 µM | > 100 | > 100 | > 100 µM | > 100 µM | 34.4 µM | > 100 | 48.1 | > 100 µM | > 100 |  |  |  | 
15 | O=C(NCc1ccccc1)c1n[nH][nH]c1=O | > 100 µM | > 100 | > 100 | > 100 µM | > 100 µM | > 100 µM | > 100 | > 100 | > 100 µM | > 100 |  |  |  | 
16 | Cc1cc(-c2nc3ccc(F)cc3s2)ccc1NC(=O)[C@H](C)N | 19.3 µM | 13.1 | 25.4 | 23.7 µM | 24.4 µM | 13.8 µM | 16.9 | 29.3 | 28.2 µM | 22.9 |  |  |  | 
17 | CC1(C)O[C@H]2OC(CO[Si](C)(C)C(C)(C)C)C(N=[N+]=[N-])[C@H]2O1 (some centres undefined) | 38.7 µM | 36.8 | 59.3 | 38.1 µM | 71.7 µM | 28.8 µM | 32.7 | 60.9 | 28.3 µM | 38.6 |  |  |  | 
18 | Cc1ccccc1OC(C)C(=O)NN1C(=O)CSC1c1ccccc1 (centres undefined) | > 100 µM | > 100 | > 100 | > 100 µM | > 100 µM | > 100 µM | > 100 | > 100 | > 100 µM | > 100 |  |  |  | 
19 | Cc1ccc(-c2cc(-c3ccco3)c(C#N)c(=S)n2C2OC(CO)C(O)C(O)C2O)cc1 (centres undefined) | 53.9 µM and > 100 µM | > 100 | > 100 | 55.9 µM and 90.7 µM | 53.6 µM and > 100 µM | > 100 µM and 89.8 µM | > 100 | > 100 | 10.7 µM and > 100 µM | > 100 | 13.4 µM and 32.4 µM | 14.5 µM and > 100 µM | 2.51 µM and 21.9 µM | 25.6 µM and 53.4 µM
20 | N#CC(NCc1cccc(CNC(C#N)c2ccccc2)c1)c1ccccc1 (centres undefined) | > 100 µM | 56.6 | 87.6 | > 100 µM | > 100 µM | 65.4 µM | > 100 | 33.8 | > 100 µM | > 100 |  |  |  | 
21 | Cc1cc(C)nc(NS(=O)(=O)c2ccc(NC(=O)c3ccc4nc5ccccc5c(Nc5ccc(S(N)(=O)=O)cc5)c4c3)cc2)n1 | > 100 µM | > 100 | > 100 | > 100 µM | > 100 µM | > 100 µM | > 100 | > 100 | > 100 µM | > 100 |  |  |  | 
22 | Cc1ccnc(NS(=O)(=O)c2ccc(N=[N+]=[N-])cc2)n1 | > 100 µM | > 100 | > 100 | > 100 µM | > 100 µM | > 100 µM | > 100 | > 100 | > 100 µM | > 100 |  |  |  | 
